Measurements: US11571389B2, “Delivery devices and methods for making the same” (THE REGENTS OF THE UNIVERSITY OF MICHIGAN, priority 2016, dated 2023)

Experiments:
mouse tibiae = assay: Tibiae μCT to assess systemic side effects of local PTH release, Example 2; format: in vivo, C57BL/6 mice; settings: compared to the BSA control group
Method: (§1) To determine the optimal PTH release mode to ensure desired PTH anabolic action in bone regeneration, the pulsatile PTH delivery device and the continuous PTH delivery device were compared in identical experimental set ups to access the outcomes of bone regeneration in a critical size (2.3 mm in diameter) round defect created in the mouse skull. The BSA loaded pulsatile devices were used as vehicle controls. All animal procedures were performed following a protocol approved by the University of Michigan Institutional Animal Care and Use Committee. C57BL/6 mice were randomly divided into four groups. Animals were anaesthetized with isoflurane (2%) inhalation. The 2.3 mm diameter craniotomy defect centered on the parietal calvarial bone was created using a trephine. A blank nanofibrous scaffold was placed to fill in the defect and a delivery device (pulsatile PTH, continuous PTH, or BSA control device) was placed adjacent to the scaffold with the opening side facing the scaffold (see FIG. 24).
Rather, PTH was subcutaneously injected for 3 weeks (21 days) using a standard systemic administration dose (40 μg/kg/d). […]
Mouse tibiae from the different groups were examined using μCT to assess the potential systemic side effects of the local PTH releases. […] A region of 0.75 mm right below the growth plate was analyzed to quantify the trabecular bone volume.

mouse calvarial defect = assay: Mouse calvarial critical size defect with nanofibrous scaffold: μCT of new bone 8 weeks after implantation; format: in vivo, C57BL/6 mice; settings: compared to the control BSA group; μCT and histomorphometry
Method: as §1, with “24). […]” for “24).”
For the calvarial bone analysis, the skulls were scanned with a fixed global threshold of 20%. 3D reconstruction of the skull and quantitative analyses were performed. A 2.3 mm-round region of interest centered on the defect was determined and the bone volume (mm^3) (BV) and bone mineral density (BMD) in the area were measured using manufacturer's software (Scanco μCT 100).

[1] = tested on: procollagen I N-terminal propeptide (P1NP); assay: Serum P1NP ELISA three weeks after implantation, Example 2; format: in vivo, C57BL/6 mice
Method: (§2) Three weeks after implantation, the mice were anaesthetized with inhalation of isoflurane (2%) and blood was collected by tail blood draw. After centrifuge for 10 minutes at 13000 rpm, serum was separated and kept frozen until biochemical assays were performed. Serum procollagen I N-terminal propeptide (P1NP) (MyBioSource, Inc) and TRAP5b (Novatein Biosciences, Mass.) ELISA immunoassays were performed following the manufacturer's protocols. The ELISA analyses were employed to evaluate the levels of bone biomarkers.

TRAP5b = assay: Serum TRAP5b ELISA three weeks after implantation, Example 2; format: in vivo, C57BL/6 mice
Method: as §2

[2] = in vivo; cited from earlier work

## PTH (1-34)
Mouse tibiae
  tibia trabecular bone volume: significantly increased
Mouse calvarial defect
  bone growth in the nanofibrous scaffold: significantly promoted
[1]
  serum P1NP level (bone formation marker): significantly elevated
TRAP5b
  serum TRAP5b level (bone resorption marker): significantly elevated
[2]
  half-life: 8 min
